Source: patent publication US6194399A, “Aryldiamine derivatives useful as antibacterial agents” (Scriptgen Pharmaceuticals, Inc., priority 1999, dated 2001)
Converted amounts (≈) assume the structure as drawn. Where two headings read alike, the source gives them in different places.

Tests used:
wild-type E. coli [1] = assay: MIC, broth microdilution assay; assay type: cell-based; conditions: Escherichia coli
Protocol: (§1) The antimicrobial activity of a compound or formulation according to the invention is determined by exposing a culture comprising a bacterial species to different concentrations of the compound or formulation and monitoring the effects on growth relative to a control culture not exposed to the compound. Any method known in the art may be used to assess bacterial growth. Antimicrobial effects are expressed as Minimal Inhibitory Concentration (MIC) and Minimum Bactericidal Concentration (MBC).
(§2) The MIC may be expressed as a range between the concentration at which no growth is observed and the concentration of the dilution which immediately follows.
(§3) Typically, MIC is measured using a broth microdilution assay as follows. Dilution of candidate antimicrobial compounds in culture medium is performed in a sterile, covered 96-well microtiter plate with flat bottom wells (Costar #9017). The final concentrations of the compounds are typically 100, 50, 25, 12.5, 6.25, 3.12, 1.56, 0.78, 0.39, 0.20, 0.10, and 0.05 μg/mL, respectively. Culture medium only (containing no bacteria) is also included as a negative control for each plate. Ampicillin and rifampin are used as positive controls against all bacterial strains in every experiment.
(§4) The overnight culture of a single colony is diluted in sterile medium so that, after inoculation, each well contains approximately 5×10^5CFU/mL. Within 15 minutes of preparation, […] of the adjusted inoculum suspension is added to the microliter plate. Each well is diluted with an equal volume of the antimicrobial compounds or control solution. The inoculated microtiter plate is typically incubated at 35° C. for 16-20 hours. The turbidity of each well is determined by measuring the absorbance at 595 nm using a BioRad Model 3550-UV microplate reader.
(§5) The antimicrobial activities of the compounds of the invention, expressed as MIC and MBC, were determined as described above, using as tester strains wild-type S. aureus, rifampicin-resistant S. aureus, wild-type E. coli, and E. coli cells that had been permeabilized.

[2] = system: rifampicin-resistant S. aureus; assay: MIC, broth microdilution assay; assay type: cell-based; conditions: Staphylococcus aureus, read-out: MIC rif^R -S. aureus
Protocol: as §1, §2, §3, §4, §5

wild-type S. aureus [3] = assay: MIC, broth microdilution assay; assay type: cell-based; conditions: Staphylococcus aureus
Protocol: as §1, §2, §3, §4, §5

[4] = system: E. coli cells that had been permeabilized; assay: MIC, broth microdilution assay; assay type: cell-based; conditions: Escherichia coli, read-out: MIC E. coli*
Protocol: Within 15 minutes of preparation, […] of the adjusted inoculum suspension is added to the microliter plate.

wild-type E. coli [5] = assay: MBC determination; assay type: cell-based; conditions: Escherichia coli
Protocol: as §1
(§6) The minimum bactericidal concentration (MBC) is defined as the concentration of antimicrobial agent from which no colonies grow on petri plates or in the medium. […] Typically, the wells from a MIC microliter plate are made using a 96-well inoculation grid into a fresh microliter plate containing 100 μL Mueller-Hinton broth per well. The MBC plates are incubated at 37° C. for 16-20 hrs and the MBC values are determined.
as §5

[6] = system: E. coli cells that had been permeabilized; assay: MBC determination; assay type: cell-based; conditions: Escherichia coli
Protocol: as §1, §6, §5

wild-type S. aureus [7] = assay: MBC determination; assay type: cell-based; conditions: Staphylococcus aureus
Protocol: as §1, §6, §5

[8] = biological target: purified RNA polymerase derived from E. coli (Escherichia coli, UniProt P0A7Z4+P0A8T7+P0A8V2); assay: in vitro transcription reaction, RNA polymerase inhibition; assay type: biochemical
Protocol: (§7) RNA polymerase inhibition activity of a compound can be detected by including the compound in an in vitro transcription reaction and comparing the level of transcription that occurs in the presence and absence of the compound. The RNA polymerase may be from a bacterial source or, as a control, from an animal source. A typical transcription reaction (50μl) contains transcription buffer (50 mM Tris-HCl, pH 8.0, 200 mM KCl, 10 mM MgCl2,10 mM DTT and 1.5 μM BSA); 1 μg of DNA template; 4 μM UTP containing 5 μCi of [α-^2-32 P] UTP; 400 μM each of ATP, GTP, and CTP; and RNA polymerase. After incubation for 60 minutes at 25° C., the reaction is terminated with 100 μl 10% TCA, which also precipitates the newly transcribed RNA, and incorporation of radioactivity into RNA is quantified. The IC50 (expressed in μg/ml) is the concentration of a compound that inhibits RNA polymerase activity by 50%.
(§8) The compounds of the invention were included at a range of concentrations in in vitro transcription reactions containing purified RNA polymerase derived from either S. aureus, E. coli, or human, and template DNA comprising a pTaq promoter. The reaction conditions and analytical method are described above.

[9] = biological target: purified RNA polymerase derived from S. aureus; assay: as above; assay type: biochemical
Protocol: as §7, §8

human pol II = human pol II (Homo sapiens, UniProt P24928+P30876); assay: as above; assay type: biochemical
Protocol: RNA polymerase inhibition activity of a compound can be detected by including the compound in an in vitro transcription reaction and comparing the level of transcription that occurs in the presence and absence of the compound. The RNA polymerase may be from a bacterial source or, as a control, from an animal source. […] UTP; 400 μM each of ATP, GTP, and CTP; and RNA polymerase. After incubation for 60 minutes at 25° C., the reaction is terminated with 100 μl 10% TCA, which also precipitates the newly transcribed RNA, and incorporation of radioactivity into RNA is quantified.
In vitro and/or in vivo criteria may used to determine specificity. That is, the inhibitory activity of a particular compound towards an animal RNA polymerase may be measured in parallel with a bacterial RNA polymerase.
as §8

purified RNA polymerase derived from S. aureus, sequence (P0A0J0 whole entry): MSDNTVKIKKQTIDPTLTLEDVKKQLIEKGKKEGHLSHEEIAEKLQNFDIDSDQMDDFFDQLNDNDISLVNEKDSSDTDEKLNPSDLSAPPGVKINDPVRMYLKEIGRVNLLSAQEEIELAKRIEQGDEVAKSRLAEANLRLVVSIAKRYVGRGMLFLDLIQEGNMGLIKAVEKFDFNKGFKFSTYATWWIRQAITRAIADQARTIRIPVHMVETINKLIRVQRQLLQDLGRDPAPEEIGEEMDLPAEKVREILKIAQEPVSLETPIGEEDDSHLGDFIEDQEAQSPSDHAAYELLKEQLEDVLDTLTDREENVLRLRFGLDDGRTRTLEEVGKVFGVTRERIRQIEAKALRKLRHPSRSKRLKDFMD
purified RNA polymerase derived from S. aureus, sequence (P0A8T7 whole entry, further chain): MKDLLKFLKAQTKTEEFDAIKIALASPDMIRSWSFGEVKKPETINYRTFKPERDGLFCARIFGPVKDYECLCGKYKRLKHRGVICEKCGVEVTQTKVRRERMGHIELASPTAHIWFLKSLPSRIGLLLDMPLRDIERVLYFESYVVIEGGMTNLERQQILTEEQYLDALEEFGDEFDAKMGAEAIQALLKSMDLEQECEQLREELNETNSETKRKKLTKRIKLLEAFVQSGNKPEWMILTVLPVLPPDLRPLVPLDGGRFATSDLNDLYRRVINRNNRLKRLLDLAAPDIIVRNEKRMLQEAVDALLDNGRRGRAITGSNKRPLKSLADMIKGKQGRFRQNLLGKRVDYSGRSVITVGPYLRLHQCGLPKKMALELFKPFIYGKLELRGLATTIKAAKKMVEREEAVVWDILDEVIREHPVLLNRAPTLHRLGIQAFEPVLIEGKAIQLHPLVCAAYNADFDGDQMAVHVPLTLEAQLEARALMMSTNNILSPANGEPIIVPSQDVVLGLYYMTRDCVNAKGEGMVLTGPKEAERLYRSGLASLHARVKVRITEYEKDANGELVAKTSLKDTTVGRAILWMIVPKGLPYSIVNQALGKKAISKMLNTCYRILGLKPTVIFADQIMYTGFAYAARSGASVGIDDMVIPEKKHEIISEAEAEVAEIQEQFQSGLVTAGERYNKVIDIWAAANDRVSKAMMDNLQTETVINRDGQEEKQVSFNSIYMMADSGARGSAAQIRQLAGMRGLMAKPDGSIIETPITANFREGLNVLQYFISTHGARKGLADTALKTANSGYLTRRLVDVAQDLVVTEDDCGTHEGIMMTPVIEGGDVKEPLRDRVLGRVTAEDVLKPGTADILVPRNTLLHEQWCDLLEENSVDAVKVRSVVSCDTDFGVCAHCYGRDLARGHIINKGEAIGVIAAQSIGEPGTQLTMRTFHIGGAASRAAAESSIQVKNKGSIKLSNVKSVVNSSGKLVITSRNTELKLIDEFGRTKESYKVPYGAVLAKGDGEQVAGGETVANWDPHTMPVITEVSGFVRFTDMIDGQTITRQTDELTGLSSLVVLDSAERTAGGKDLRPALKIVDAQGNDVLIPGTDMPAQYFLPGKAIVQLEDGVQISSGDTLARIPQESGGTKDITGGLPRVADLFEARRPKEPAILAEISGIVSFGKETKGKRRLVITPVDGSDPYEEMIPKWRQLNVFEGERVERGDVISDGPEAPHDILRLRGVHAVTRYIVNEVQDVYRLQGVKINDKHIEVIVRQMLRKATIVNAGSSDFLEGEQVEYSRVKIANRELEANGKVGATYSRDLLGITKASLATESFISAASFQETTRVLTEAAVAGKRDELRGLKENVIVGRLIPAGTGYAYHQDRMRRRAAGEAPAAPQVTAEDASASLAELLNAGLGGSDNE
purified RNA polymerase derived from S. aureus, sequence (P0A7Z4 whole entry, further chain): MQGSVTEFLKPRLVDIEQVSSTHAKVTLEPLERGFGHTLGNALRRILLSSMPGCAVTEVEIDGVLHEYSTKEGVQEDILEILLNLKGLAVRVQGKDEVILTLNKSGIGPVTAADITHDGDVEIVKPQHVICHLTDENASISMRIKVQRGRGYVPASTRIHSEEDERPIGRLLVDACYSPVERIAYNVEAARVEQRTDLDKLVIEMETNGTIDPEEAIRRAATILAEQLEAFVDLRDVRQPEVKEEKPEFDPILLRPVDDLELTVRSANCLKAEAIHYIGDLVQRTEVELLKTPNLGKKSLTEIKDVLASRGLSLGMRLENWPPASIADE
purified RNA polymerase derived from S. aureus, sequence (P0A8V2 whole entry, further chain): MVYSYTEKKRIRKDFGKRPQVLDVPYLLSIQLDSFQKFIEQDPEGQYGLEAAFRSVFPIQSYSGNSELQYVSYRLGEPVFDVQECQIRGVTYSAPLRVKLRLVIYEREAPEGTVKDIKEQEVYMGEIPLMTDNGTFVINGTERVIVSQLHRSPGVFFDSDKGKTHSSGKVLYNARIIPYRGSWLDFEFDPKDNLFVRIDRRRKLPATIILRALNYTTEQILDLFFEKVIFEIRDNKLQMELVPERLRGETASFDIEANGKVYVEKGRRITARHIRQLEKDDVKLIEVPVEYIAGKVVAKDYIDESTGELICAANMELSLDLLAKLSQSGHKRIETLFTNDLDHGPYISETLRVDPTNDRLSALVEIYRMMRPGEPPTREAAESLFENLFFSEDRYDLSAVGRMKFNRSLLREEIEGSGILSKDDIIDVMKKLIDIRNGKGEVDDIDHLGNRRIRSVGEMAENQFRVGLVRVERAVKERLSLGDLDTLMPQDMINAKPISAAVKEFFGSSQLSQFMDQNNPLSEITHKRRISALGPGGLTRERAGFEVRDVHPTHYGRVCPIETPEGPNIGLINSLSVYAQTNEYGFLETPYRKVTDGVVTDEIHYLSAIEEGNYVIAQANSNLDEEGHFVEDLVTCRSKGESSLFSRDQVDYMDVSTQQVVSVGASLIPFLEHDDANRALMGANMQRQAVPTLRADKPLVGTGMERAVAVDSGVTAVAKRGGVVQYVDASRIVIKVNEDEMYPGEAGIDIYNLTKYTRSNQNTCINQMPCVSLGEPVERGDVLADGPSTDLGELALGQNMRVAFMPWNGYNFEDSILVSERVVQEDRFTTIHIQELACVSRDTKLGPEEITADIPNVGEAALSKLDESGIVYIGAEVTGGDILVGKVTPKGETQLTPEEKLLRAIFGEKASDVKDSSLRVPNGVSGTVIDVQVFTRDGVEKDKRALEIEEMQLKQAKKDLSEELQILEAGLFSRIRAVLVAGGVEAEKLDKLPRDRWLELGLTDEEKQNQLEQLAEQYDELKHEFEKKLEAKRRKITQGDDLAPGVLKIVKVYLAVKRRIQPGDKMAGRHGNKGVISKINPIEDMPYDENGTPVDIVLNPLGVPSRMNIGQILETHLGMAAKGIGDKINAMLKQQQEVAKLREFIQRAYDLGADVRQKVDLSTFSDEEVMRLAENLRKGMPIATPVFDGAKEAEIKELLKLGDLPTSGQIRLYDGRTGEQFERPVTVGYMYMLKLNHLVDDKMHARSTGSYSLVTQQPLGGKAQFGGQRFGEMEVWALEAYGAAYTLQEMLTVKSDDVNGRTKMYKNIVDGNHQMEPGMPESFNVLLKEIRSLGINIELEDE

SMILES | MIC (wild-type E. coli [1]) [µg/mL] | MIC [2] [µg/mL] | MIC (wild-type S. aureus [3]) [µg/mL] | MIC [4] [µg/mL] | MBC (wild-type E. coli [5]) [µg/mL] | MBC [6] [µg/mL] | MBC (wild-type S. aureus [7]) [µg/mL] | IC50 [8] [µM] | IC50 [9] [µM] | IC50 (human pol II) [µM] | IC50 ([8]; pTaq promoter template DNA, 60 minutes at 25° C., read-out: IC50 E. coli RNA polymerase (converted)) [µM] | IC50 ([9]; pTaq promoter template DNA, 60 minutes at 25° C., read-out: IC50 S. aureus RNA polymerase (converted)) [µM] | selectivity for bacterial RNA polymerase relative to human RNA polymerase (human pol II; bacterial (S. aureus, E. coli) versus human RNA polymerase) | IC50 (human pol II; pTaq promoter template DNA, 60 minutes at 25° C., read-out: IC50 human pol II (converted)) [µM]
CC1(C)S[C@@H]2[C@H](NC(=O)[C@H](N)c3ccccc3)C(=O)N2[C@H]1C(=O)O [Amp, Ampicillin, reference compound] | 2 (≈ 5.72 µM) | 4 (≈ 11.4 µM) | 8 (≈ 22.9 µM) | – | – | – | – | – | – | – | – | – | – | –
CO[C@H]1/C=C/O[C@@]2(C)Oc3c(C)c(O)c4c(O)c(c(/C=N/N5CCN(C)CC5)c(O)c4c3C2=O)NC(=O)/C(C)=C\C=C\[C@H](C)[C@H](O)[C@@H](C)[C@@H](O)[C@@H](C)[C@H](OC(C)=O)[C@@H]1C [Rif, rifampin, reference compound] | 4 (≈ 4.86 µM) | > 64 | < 0.03 | < 0.03 | – | – | – | – | – | – | – | – | – | –
NCCNc1ccc([N+](=O)[O-])c(N2CCN(c3ccc([N+](=O)[O-])cc3)CC2)c1 [Compound (B)] | 8 (≈ 20.7 µM) | 2 (≈ 5.18 µM) | 1 (≈ 2.59 µM) | 4 (≈ 10.4 µM) | 32 (≈ 82.8 µM) | 2 (≈ 5.18 µM) | 8 (≈ 20.7 µM) | 23.3 | 10.4 | 104 | – | – | – | –
NCCNc1ccc([N+](=O)[O-])c(NCCOc2ccccc2)c1 [Compound (A), N^1-(2-aminoethyl)-4-nitro-N^3-(2-phenoxyethyl)-1,3-benzenediamine] | 13 (≈ 41.1 µM) | 13 (≈ 41.1 µM) | 6 (≈ 19 µM) | – | 50 (≈ 158 µM) | 25 (≈ 79 µM) | 25 (≈ 79 µM) | – | – | – | 25.3 | 12.6 | highest degree of selectivity | 316
